From ChEMBL document CHEMBL1153643, “Design, synthesis and evaluation of aspirin analogues having an additional carboxylate substituent for antithrombotic activity” (Bioorg Med Chem Lett, 2009)
Calls of active or inactive are those of the source. No cut-off for these calls is given here.

What was measured:
Format in all cases: cell-free
[1] = target: Prostaglandin G/H synthase 1 (Homo sapiens) (UniProt P23219); test: Ratio of compound IC50 to aspirin IC50 for PGHS-1 in human platelet rich plasma assessed as inhibition of arachidonic acid-induced platelet aggregation
Prostaglandin G/H synthase 1 (Homo sapiens), sequence (P23219 whole entry): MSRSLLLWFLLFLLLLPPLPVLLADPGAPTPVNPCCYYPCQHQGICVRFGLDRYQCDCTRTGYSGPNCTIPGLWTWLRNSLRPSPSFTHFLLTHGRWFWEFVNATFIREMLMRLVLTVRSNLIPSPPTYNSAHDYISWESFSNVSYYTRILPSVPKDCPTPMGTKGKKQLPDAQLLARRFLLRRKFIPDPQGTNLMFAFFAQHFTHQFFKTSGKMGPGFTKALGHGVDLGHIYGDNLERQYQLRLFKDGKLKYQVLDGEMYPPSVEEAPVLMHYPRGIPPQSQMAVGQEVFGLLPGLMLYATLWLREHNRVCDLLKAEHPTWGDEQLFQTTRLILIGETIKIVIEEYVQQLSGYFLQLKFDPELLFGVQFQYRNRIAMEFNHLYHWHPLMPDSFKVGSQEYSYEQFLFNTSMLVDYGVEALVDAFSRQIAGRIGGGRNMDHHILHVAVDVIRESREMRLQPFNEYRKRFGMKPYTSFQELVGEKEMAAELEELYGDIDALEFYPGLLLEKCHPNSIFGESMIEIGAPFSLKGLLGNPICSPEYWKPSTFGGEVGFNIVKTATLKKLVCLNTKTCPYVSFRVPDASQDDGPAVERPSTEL

[2] = target: Prostaglandin G/H synthase 1 (Homo sapiens) (UniProt P23219); test: Inhibition of PGHS-1 in human platelet rich plasma assessed as inhibition of U46619-induced platelet aggregation in human platelet rich plasma at 1000 um
[3] = target: Prostaglandin G/H synthase 1 (Homo sapiens) (UniProt P23219); test: Inhibition of PGHS-1 in human platelet rich plasma assessed as inhibition of arachidonic acid-induced platelet aggregation at 1000 um treated 5 min before arachidonic acid challenge by turbidimetry

With `COC(=O)CCCCc1cccc(C(=O)OC)c1OC(C)=O` the Ratio IC50 [1] was 15 and the Activity [2] was “inactive”.

For `CC(=O)Oc1c(CCCC(=O)O)cccc1C(=O)O`, the Activity [3] was “inactive”.

In the case of `CC(=O)Oc1c(C(=O)O)cccc1C(=O)CCCC(=O)O`, the Activity [3] is reported as “inactive”.

With `CC(=O)Oc1c(CCCCC(=O)O)cccc1C(=O)O` the Activity [3] was “inactive”.
